Reference: ChEMBL document CHEMBL1140446, “Designed multiple ligands. An emerging drug discovery paradigm” (J Med Chem, 2005)

How the values were obtained:
Substance-P receptor = Substance-P receptor (Homo sapiens, UniProt P25103); experiment: Inhibitory concentration against tachykinin receptor 1
Substance-K receptor = molecular target: T1, Substance-K receptor (Homo sapiens, UniProt P21452)
T1 sequence (P21452 whole entry): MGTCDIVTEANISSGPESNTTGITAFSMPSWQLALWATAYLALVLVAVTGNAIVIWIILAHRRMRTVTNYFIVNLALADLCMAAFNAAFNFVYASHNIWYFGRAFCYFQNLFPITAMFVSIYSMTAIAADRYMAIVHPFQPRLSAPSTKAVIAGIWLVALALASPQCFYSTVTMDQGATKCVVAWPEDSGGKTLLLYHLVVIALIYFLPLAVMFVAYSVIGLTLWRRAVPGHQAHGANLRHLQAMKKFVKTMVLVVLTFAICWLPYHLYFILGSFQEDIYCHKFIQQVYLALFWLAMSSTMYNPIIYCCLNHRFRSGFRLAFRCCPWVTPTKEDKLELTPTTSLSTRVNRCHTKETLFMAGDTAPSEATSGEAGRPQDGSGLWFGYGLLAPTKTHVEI
Description: Inhibitory concentration against tachykinin receptor 2

[1] = molecular target: T2, Peroxisome proliferator-activated receptor gamma (Homo sapiens, UniProt P37231)
T2 sequence (P37231 whole entry): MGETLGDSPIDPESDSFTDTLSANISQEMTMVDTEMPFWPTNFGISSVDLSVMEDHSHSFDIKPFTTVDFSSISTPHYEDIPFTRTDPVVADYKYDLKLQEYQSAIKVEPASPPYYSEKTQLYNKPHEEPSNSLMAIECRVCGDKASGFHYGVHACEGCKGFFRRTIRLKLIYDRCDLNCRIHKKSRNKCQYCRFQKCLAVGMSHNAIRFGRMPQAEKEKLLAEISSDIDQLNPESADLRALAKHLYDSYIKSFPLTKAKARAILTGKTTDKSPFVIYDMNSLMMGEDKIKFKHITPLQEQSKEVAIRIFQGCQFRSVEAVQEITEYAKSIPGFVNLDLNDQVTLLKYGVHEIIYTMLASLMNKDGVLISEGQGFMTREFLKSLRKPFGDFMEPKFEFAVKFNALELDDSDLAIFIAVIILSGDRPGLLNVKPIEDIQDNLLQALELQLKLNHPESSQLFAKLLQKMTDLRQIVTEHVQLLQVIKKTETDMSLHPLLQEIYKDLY
Description: Binding affinity towards peroxisome proliferator activated receptor gamma

[2] = molecular target: T3, Peroxisome proliferator-activated receptor alpha (Homo sapiens, UniProt Q07869)
T3 sequence (Q07869 whole entry): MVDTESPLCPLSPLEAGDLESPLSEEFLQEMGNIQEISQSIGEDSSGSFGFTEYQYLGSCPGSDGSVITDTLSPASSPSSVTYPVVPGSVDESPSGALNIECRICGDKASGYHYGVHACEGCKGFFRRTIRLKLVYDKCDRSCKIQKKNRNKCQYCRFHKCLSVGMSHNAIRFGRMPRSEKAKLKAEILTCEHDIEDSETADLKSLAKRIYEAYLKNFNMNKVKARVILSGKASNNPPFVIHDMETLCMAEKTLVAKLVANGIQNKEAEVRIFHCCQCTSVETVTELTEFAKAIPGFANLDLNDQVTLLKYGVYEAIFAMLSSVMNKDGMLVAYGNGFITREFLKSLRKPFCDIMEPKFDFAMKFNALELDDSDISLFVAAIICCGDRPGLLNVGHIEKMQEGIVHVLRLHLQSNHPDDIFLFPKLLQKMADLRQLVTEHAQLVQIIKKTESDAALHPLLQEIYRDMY
Description: Binding affinity towards peroxisome proliferator activated receptor alpha

Endothelin-1 receptor = molecular target: T4, Endothelin-1 receptor (Homo sapiens, UniProt P25101)
T4 sequence (P25101 whole entry): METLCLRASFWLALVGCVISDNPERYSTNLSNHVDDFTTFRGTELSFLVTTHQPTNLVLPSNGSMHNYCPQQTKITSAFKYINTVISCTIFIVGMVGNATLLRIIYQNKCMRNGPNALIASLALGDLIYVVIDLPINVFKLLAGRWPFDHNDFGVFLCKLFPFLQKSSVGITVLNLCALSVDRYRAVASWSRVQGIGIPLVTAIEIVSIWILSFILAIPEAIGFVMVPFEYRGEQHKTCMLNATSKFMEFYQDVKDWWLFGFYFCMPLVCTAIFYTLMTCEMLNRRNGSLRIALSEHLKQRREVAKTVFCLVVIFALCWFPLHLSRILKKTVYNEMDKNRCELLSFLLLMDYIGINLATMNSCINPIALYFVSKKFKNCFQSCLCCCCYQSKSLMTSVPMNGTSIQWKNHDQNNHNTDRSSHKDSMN
Description: Inhibitory concentration against endothelin receptor type A

[3] = molecular target: T5, Type-1 angiotensin II receptor (Homo sapiens, UniProt P30556)
T5 sequence (P30556 whole entry): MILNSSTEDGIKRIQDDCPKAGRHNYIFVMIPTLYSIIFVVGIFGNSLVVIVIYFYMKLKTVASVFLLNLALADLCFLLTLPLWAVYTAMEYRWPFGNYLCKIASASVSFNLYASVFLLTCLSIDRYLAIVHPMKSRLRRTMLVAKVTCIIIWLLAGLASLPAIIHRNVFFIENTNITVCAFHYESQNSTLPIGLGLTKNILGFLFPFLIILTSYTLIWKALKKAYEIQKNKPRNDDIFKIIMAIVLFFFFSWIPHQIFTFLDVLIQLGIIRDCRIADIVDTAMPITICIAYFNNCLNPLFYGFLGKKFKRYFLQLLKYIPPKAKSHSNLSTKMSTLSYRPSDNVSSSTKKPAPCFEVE
Description: (§1) Inhibitory concentration against angiotensin II receptor, type 1

Thromboxane A2 receptor = molecular target: T6, Thromboxane A2 receptor (Homo sapiens, UniProt P21731)
T6 sequence (P21731 whole entry): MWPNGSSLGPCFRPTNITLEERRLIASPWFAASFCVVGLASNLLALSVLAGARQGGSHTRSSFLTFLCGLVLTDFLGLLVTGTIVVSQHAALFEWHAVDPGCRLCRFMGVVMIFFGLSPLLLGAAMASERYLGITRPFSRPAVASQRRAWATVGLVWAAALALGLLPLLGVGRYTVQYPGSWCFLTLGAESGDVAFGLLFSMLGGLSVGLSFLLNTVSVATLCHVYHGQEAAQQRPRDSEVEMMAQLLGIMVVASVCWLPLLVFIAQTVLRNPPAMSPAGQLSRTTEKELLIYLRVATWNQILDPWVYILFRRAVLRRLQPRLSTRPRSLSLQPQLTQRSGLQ
Description: Inhibition constant against thromboxane A2 receptor to prostaglandin H2 receptor

Histamine H1 receptor = Histamine H1 receptor (Homo sapiens, UniProt P35367)
Description: Inhibition constant against histamine H1 receptor

[4] = molecular target: Prostaglandin G/H synthase 1 (Homo sapiens, UniProt P23219)
Description: Inhibitory concentration against prostaglandin G/H synthase 1

Thromboxane-A synthase = Thromboxane-A synthase (Homo sapiens, UniProt P24557)
Description: Inhibitory concentration against thromboxane A2 synthase

[5] = molecular target: T7, Polyunsaturated fatty acid 5-lipoxygenase (Homo sapiens, UniProt P09917)
T7 sequence (P09917 whole entry): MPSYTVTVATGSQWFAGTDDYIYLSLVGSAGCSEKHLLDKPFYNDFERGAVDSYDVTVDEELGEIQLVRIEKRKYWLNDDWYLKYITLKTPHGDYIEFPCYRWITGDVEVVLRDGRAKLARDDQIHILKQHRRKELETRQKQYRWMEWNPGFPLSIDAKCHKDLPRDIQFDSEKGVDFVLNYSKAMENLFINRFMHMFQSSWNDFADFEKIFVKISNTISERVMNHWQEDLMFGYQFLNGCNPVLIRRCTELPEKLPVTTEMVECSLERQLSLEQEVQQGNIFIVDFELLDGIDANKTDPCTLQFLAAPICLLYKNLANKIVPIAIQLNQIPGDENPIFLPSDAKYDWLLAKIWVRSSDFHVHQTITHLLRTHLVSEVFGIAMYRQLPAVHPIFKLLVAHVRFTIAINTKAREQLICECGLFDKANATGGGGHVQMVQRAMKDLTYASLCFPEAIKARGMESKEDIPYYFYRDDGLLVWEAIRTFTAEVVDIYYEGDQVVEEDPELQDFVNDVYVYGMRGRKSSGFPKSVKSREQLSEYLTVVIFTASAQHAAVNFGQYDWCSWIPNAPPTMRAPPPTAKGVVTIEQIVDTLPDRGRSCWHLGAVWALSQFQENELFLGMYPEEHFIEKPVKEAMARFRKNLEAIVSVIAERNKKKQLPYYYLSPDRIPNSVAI
Description: Inhibitory concentration against arachidonate 5-lipoxygenase

[6] = molecular target: T5, Type-1 angiotensin II receptor; remark: listed apart in the source
Description: as §1

[7] = molecular target: T8, Type-2 angiotensin II receptor (Homo sapiens, UniProt P50052)
T8 sequence (P50052 whole entry): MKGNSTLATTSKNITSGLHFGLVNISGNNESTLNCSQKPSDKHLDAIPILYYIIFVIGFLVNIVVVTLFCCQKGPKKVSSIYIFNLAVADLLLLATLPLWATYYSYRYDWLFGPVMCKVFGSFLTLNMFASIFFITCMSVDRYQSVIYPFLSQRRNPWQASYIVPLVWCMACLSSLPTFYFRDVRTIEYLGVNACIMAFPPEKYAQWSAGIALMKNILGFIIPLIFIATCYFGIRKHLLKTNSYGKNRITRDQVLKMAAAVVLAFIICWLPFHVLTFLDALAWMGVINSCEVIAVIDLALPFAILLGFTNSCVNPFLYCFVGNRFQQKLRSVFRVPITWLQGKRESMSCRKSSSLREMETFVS
Description: Inhibitory concentration against angiotensin II receptor, type 2

Chain of Prostaglandin G/H synthase 1 (P23219 whole entry): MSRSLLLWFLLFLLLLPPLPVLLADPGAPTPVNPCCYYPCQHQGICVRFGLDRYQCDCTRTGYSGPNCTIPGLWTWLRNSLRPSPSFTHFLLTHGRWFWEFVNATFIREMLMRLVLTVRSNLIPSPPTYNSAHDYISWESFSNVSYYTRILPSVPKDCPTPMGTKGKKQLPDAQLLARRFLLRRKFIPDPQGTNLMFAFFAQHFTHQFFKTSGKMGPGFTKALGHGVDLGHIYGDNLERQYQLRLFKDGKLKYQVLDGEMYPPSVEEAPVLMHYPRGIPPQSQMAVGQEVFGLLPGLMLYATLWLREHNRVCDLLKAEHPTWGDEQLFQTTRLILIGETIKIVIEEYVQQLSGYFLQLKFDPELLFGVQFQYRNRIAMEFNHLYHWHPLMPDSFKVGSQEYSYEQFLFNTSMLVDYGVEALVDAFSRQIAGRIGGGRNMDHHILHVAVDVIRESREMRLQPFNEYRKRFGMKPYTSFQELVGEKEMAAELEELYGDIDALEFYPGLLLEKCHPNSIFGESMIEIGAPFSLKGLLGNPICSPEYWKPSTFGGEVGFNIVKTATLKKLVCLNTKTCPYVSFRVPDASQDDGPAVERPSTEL
Chain of Histamine H1 receptor (P35367 whole entry): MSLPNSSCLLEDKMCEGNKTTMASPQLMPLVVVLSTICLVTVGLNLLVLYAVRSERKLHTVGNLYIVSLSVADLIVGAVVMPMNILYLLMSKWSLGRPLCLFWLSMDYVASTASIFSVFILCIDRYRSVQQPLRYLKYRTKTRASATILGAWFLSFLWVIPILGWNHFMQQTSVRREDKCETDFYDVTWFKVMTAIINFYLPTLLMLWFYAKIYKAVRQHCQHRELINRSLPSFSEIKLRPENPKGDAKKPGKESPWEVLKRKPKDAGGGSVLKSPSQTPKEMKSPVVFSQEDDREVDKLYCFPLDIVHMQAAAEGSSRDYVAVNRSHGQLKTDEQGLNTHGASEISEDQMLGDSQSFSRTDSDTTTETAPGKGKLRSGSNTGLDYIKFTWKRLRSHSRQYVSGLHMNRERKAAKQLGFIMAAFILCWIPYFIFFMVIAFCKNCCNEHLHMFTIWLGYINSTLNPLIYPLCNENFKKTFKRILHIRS
Chain of Thromboxane-A synthase (P24557 whole entry): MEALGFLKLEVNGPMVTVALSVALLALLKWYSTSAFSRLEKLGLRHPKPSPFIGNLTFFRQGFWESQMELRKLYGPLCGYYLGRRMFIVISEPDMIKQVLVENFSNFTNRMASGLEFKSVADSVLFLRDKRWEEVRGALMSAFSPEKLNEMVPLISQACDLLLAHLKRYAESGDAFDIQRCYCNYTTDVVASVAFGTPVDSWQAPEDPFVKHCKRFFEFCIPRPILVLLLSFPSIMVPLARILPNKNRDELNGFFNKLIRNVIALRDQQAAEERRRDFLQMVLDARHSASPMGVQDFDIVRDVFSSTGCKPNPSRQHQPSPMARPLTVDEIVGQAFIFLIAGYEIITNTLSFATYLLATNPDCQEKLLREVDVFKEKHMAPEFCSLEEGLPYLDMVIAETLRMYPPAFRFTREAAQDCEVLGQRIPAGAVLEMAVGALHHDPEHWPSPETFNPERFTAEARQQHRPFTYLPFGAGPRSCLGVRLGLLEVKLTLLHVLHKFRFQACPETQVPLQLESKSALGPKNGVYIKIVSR
Chain of Substance-P receptor (P25103 whole entry): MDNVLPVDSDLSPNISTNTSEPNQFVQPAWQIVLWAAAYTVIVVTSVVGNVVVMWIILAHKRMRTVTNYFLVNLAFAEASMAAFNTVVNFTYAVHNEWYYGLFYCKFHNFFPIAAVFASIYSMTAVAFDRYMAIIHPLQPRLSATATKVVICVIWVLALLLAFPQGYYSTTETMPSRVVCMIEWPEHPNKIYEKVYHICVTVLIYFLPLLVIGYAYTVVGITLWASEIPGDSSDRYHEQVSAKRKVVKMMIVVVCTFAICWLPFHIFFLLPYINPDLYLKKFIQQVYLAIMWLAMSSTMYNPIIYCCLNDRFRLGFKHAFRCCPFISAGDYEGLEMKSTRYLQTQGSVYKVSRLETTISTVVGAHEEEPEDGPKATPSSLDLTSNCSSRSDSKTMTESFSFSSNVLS

Structure (SMILES): COc1cc(C(=O)N2CC[C@@](CCN3CCC(C(N)=O)(c4ccccc4)CC3)(c3ccc(Cl)c(Cl)c3)C2)cc(OC)c1OC
- IC50 (Substance-P receptor): 3.1 nM
- IC50 (Substance-K receptor): 8.4 nM

Structure (SMILES): CC(Cc1ccccc1)(Oc1ccc(Cl)cc1)C(=O)O (configuration not stated)
- IC50 [1]: 3900 nM
- IC50 [2]: 4400 nM

Structure (SMILES): Cc1onc(NS(=O)(=O)c2ccccc2-c2ccc(-c3ncco3)cc2CN(C)C(=O)CC(C)(C)C)c1C [EDONENTAN]
- Ki (Endothelin-1 receptor): 10 nM
- Ki [3]: > 10 nM

Structure (SMILES): CCCCC1=NC2(CCCC2)C(=O)N1Cc1ccc(-c2ccccc2S(=O)(=O)Nc2noc(C)c2C)c(COCC)c1
- Ki (Endothelin-1 receptor): 9.3 nM
- Ki [3]: 0.8 nM

Structure (SMILES): Cc1oc(-c2ccccc2)nc1CCOc1ccc(OC(C)(C)C(=O)O)cc1
- IC50 [1]: 2570 nM
- IC50 [2]: 1740 nM

Structure (SMILES): CN(C)C/C=C1\c2ccccc2COc2ccc(CC(=O)O)cc21
- Ki (Thromboxane A2 receptor): > 1000 nM
- Ki (Histamine H1 receptor): 11 nM

Structure (SMILES): COC1(c2cc(F)cc(OCc3cc(-c4ccccc4)n(-c4ccc(S(C)(=O)=O)cc4)n3)c2)CCOCC1
- IC50 [4]: > 10 nM

Structure (SMILES): Cc1c(Cc2ccncc2)n(CCNS(=O)(=O)c2ccc(F)cc2)c2ccc(CCC(=O)O)cc12
- IC50 (Thromboxane-A synthase): 78 nM

Structure (SMILES): CNc1nc2c(Cc3cccnc3)c(C)c(O)c(C)c2s1
- IC50 (Thromboxane-A synthase): 90 nM
- IC50 [5]: 100 nM

Structure (SMILES): O=C(O)c1ccc2c(c1)/C(=C/Cn1cnc3ccccc31)c1ccccc1CO2
- Ki (Thromboxane A2 receptor): 15 nM

Structure (SMILES): CC1(C)Cc2c(-c3ccccc3)c(-c3ccc(Cl)cc3)c(CC(=O)O)n2C1 [LICOFELONE]
- IC50 [5]: 210 nM
- IC50 [4]: 160 nM

Structure (SMILES): O=C(O)Cc1ccc2c(c1)C(=CCN1CCC(Cc3ccccc3)CC1)c1ccccc1CO2
- Ki (Thromboxane A2 receptor): 740 nM
- Ki (Histamine H1 receptor): 20 nM

Structure (SMILES): CCCCc1nc2ccc(NC(=O)N(C)C(C)C)cc2c(=O)n1Cc1ccc(-c2ccccc2-c2nnn[nH]2)cc1
- IC50 [6]: 0.1 nM
- IC50 [7]: 4500 nM

Structure (SMILES): CCCCCN(C(=O)c1ccccc1)c1ccc2nc(CCC)n(Cc3ccc(-c4ccccc4-c4nn[nH]n4)cc3)c(=O)c2c1
- IC50 [6]: 1.7 nM
- IC50 [7]: 0.7 nM

Structure (SMILES): NC(=O)C1(c2ccccc2)CCN(CC[C@@]2(c3ccc(Cl)c(Cl)c3)CCN(C(=O)c3ccccc3)C2)CC1
- IC50 (Substance-P receptor): 161 nM
- IC50 (Substance-K receptor): 2.25 nM
